This note sets out measurements from patent US11878965B2, “Inhibitors of peptidylarginine deiminases” (Gilead Sciences, Inc., priority 2020, dated 2024).

The target in the assay is human PAD4 (Homo sapiens (Human), UniProt Q9UM07). The experiment in a line: In Vitro PAD4 BAEE Biochemical Assay. The note with it: geometric mean of multiple experiments. The method in brief:
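Deimination of BAEE substrate (3 mM) measured as ammonia via o-phthalaldehyde–DTT isoindole fluorescence, 405/535 nm. Tag-free bacterially expressed human PAD4 at 5 nM with 2 mM calcium chloride, pH 7.6 MOPS buffer, 30 min compound preincubation then 2 h reaction, both at 25 °C.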

The mark [1] stands for this setting: human PAD4, BAEE substrate, 5 nM PAD4, 2 mM calcium chloride, 3 mM BAEE.
[2] abbreviates: recombinant PAD4 5 nM, 2 mM calcium chloride, 3 mM BAEE substrate.

human PAD4, sequence (Q9UM07 2-663): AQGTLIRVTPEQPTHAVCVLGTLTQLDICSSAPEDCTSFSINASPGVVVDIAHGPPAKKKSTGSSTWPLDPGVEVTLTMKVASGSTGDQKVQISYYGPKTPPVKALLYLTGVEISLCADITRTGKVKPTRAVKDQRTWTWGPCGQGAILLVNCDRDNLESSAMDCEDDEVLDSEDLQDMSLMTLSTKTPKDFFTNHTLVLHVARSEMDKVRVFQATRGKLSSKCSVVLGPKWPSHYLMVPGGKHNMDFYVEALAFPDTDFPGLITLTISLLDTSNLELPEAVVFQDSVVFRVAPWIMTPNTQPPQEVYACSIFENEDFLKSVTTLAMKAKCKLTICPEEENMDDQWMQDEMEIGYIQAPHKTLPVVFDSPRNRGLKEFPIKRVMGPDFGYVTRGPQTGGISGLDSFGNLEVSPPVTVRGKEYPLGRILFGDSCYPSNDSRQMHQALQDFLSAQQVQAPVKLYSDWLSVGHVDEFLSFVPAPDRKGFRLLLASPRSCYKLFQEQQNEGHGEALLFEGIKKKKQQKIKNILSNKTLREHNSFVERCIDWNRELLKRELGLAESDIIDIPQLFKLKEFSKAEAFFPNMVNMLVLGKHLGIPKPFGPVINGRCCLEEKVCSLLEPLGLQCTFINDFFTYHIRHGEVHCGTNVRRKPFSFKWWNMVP

With `COc1cc(C(=O)N2C[C@H](N)CCN2C)cc2nc(-c3cc4ccc([C@@H](C)NC(=O)C(C)(C)c5ccccc5)nc4n3CC3CC3)n(C)c12` [Example 159, N-((R)-1-(2-(5-((R)-5-amino-2-methylhexahydropyridazine-1-carbonyl)-7-methoxy-1-methyl-1H-benzo[d]imidazol-2-yl)-1-(cyclopropylmethyl)-1H-pyrrolo[2,3-b]pyridin-6-yl)ethyl)-2-methyl-2-phenylpropanamide], under setting [1], the IC50 worked out at 229 nM.

As for `COc1cc(C(=O)N2[C@H]3CC[C@@H]2[C@H](N)C3)cc2nc(-c3cc4ccc([C@@H](C)NC(=O)C5(OC)CC5)cc4n3CC3CC3)n(C)c12` [Example 142, N-((R)-1-(2-(5-((1R,2R,4S)-2-amino-7-azabicyclo[2.2.1]heptane-7-carbonyl)-7-methoxy-1-methyl-1H-benzo[d]imidazol-2-yl)-1-(cyclopropylmethyl)-1H-indol-6-yl)ethyl)-1-methoxycyclopropane-1-carboxamide], the IC50 under setting [1] was determined as 44.5 nM. Still for that read-out and setting: for `COc1cc(C(=O)N2C[C@H](N)[C@@H]3CC[C@H]2C3)cc2nc(-c3cc4ccc([C@@H](C)NC(=O)[C@H]5CC5(F)F)nc4n3CC3CC3)n(C)c12` [Example 220, (R)-N-((R)-1-(2-(5-((1S,4R,5R)-4-amino-2-azabicyclo[3.2.1]octane-2-carbonyl)-7-methoxy-1-methyl-1H-benzo[d]imidazol-2-yl)-1-(cyclopropylmethyl)-1H-pyrrolo[2,3-b]pyridin-6-yl)ethyl)-2,2-difluorocyclopropane-1-carboxamide] the value was 54.9 nM. As for `COc1cc(C(=O)N2C[C@H](N)[C@@H]3CC[C@H]2C3)cc2nc(-c3cc4ccc([C@@H](C)NC(=O)C5(OC)CC5)nc4n3CC3CC3)n(C)c12` [Example 322, N-((R)-1-(2-(5-((1S,4R,5R)-4-amino-2-azabicyclo[3.2.1]octane-2-carbonyl)-7-methoxy-1-methyl-1H-benzo[d]imidazol-2-yl)-1-(cyclopropylmethyl)-1H-pyrrolo[2,3-b]pyridin-6-yl)ethyl)-1-methoxycyclopropane-1-carboxamide], the IC50 under setting [2] stood at 62 nM. For the molecule `COc1cc(C(=O)N2[C@H]3CC[C@@H]2[C@H](N)C3)cc2nc(-c3cc4ccc([C@@H](C)NS(C)(=O)=O)nc4n3CC3CC3)n(C)c12` [Example 243, N-((R)-1-(2-(5-((1R,2R,4S)-2-amino-7-azabicyclo[2.2.1]heptane-7-carbonyl)-7-methoxy-1-methyl-1H-benzo[d]imidazol-2-yl)-1-(cyclopropylmethyl)-1H-pyrrolo[2,3-b]pyridin-6-yl)ethyl)methanesulfonamide], the IC50 under setting [1] worked out at 52.8 nM. Still for that read-out and setting: for `COc1cc(C(=O)N2C[C@H](N)[C@@H]3CC[C@H]2C3)cc2nc(-c3cc4ccc([C@@H](C)NC(=O)C56CC(Cl)(C5)C6)nc4n3CC3CC3)n(C)c12` [Example 229, N-((R)-1-(2-(5-((1S,4R,5R)-4-amino-2-azabicyclo[3.2.1]octane-2-carbonyl)-7-methoxy-1-methyl-1H-benzo[d]imidazol-2-yl)-1-(cyclopropylmethyl)-1H-pyrrolo[2,3-b]pyridin-6-yl)ethyl)-3-chlorobicyclo[1.1.1]pentane-1-carboxamide] the value was 83.3 nM. Same read-out and setting: for `CCCCS(=O)(=O)N(C)c1ccc2cc(-c3nc4cc(C(=O)N5CCC[C@@H](N)C5)cc(OC)c4n3C)n(CC3CC3)c2n1` [Example 14, (R)-N-(2-(5-(3-aminopiperidine-1-carbonyl)-7-methoxy-1-methyl-1H-benzo[d]imidazol-2-yl)-1-(cyclopropylmethyl)-1H-pyrrolo [2,3-b]pyridin-6-yl)-N-methylbutane-1-sulfonamide] the value was 249 nM; for `COc1cc(C(=O)N2CCC[C@@H](N)C2)cc2nc(-c3cc4ccc(N5[C@@H](C)CCCS5(=O)=O)nc4n3CC3CC3)n(C3CC3)c12` [Example 101, ((R)-3-aminopiperidin-1-yl)(1-cyclopropyl-2-(1-(cyclopropylmethyl)-6-((S)-3-methyl-1,1-dioxido-1,2-thiazinan-2-yl)-1H-pyrrolo[2,3-b]pyridin-2-yl)-7-methoxy-1H-benzo[d]imidazol-5-yl)methanone], 43.4 nM. On the same count and under the same terms, for `CNC(=O)c1ccc2cc(-c3nc4cc(C(=O)N5C[C@H](N)CC[C@@H]5C)cc(OC)c4n3C)n(CC3CC3)c2n1` [Example 251, 2-(5-((2S,5R)-5-amino-2-methylpiperidine-1-carbonyl)-7-methoxy-1-methyl-1H-benzo[d]imidazol-2-yl)-1-(cyclopropylmethyl)-N-methyl-1H-pyrrolo[2,3-b]pyridine-6-carboxamide] the value was 1720 nM; for `[2H][C@@]1(N)CCCN(C(=O)c2cc(OC)c3c(c2)nc(-c2cc4ccc(N(C(F)F)S(C)(=O)=O)nc4n2CC2CC2)n3C)C1` [Example 45, (R)-N-(2-(5-(3-aminopiperidine-1-carbonyl-3-d)-7-methoxy-1-methyl-1H-benzo[d]imidazol-2-yl)-1-(cyclopropylmethyl)-1H-pyrrolo[2,3-b]pyridin-6-yl)-N-(difluoromethyl) methanesulfonamide], 110 nM; for `COc1cc(C(=O)N[C@@H]2CCNC2)cc2nc(-c3cc4ccc(N(C(F)F)S(C)(=O)=O)nc4n3CC3CC3)n(C)c12` [Example 72, (R)-2-(1-(cyclopropylmethyl)-6-((N-(difluoromethyl)methyl)sulfonamido)-1H-pyrrolo[2,3-b]pyridin-2-yl)-7-methoxy-1-methyl-N-(pyrrolidin-3-yl)-1H-benzo[d] imidazole-5-carboxamide], 20900 nM. For the molecule `COc1cc(C(=O)N2C[C@H](N)[C@@H]3CC[C@H]2C3)cc2nc(-c3cc4ccc([C@@H](C)NC(=O)c5cccnc5C(F)(F)F)nc4n3CC3CC3)n(C)c12` [Example 306, N-((R)-1-(2-(5-((1S,4R,5R)-4-amino-2-azabicyclo[3.2.1]octane-2-carbonyl)-7-methoxy-1-methyl-1H-benzo[d]imidazol-2-yl)-1-(cyclopropylmethyl)-1H-pyrrolo[2,3-b]pyridin-6-yl)ethyl)-2-(trifluoromethyl)nicotinamide], under setting [2], the IC50 amounted to 92.8 nM. As to `COc1cc(C(=O)N2CCC[C@@H](N)[C@H]2C)cc2nc(-c3cc4ccc(N(C)S(C)(=O)=O)nc4n3CC3CC3)n(C)c12` [Example 4, N-(2-(5-((2R,3R)-3-amino-2-methylpiperidine-1-carbonyl)-7-methoxy-1-methyl-1H-benzo[d]imimidazol-2-yl)-1-(cyclopropylmethyl)-1H-pyrrolo [2,3-b]pyridin-6-yl)-N-methylmethanesulfonamide], the IC50 under setting [1] stood at 149 nM. Still for that read-out and setting: for `[2H]C([2H])([2H])C(C(=O)N[C@H](C)c1ccc2cc(-c3nc4cc(C(=O)N5C[C@H](N)CCN5C)cc(OC)c4n3C)n(CC3CC3)c2n1)(C([2H])([2H])[2H])C([2H])([2H])[2H]` [Example 189, N-((R)-1-(2-(5-((R)-5-amino-2-methylhexahydropyridazine-1-carbonyl)-7-methoxy-1-methyl-1H-benzo[d]imidazol-2-yl)-1-(cyclopropylmethyl)-1H-pyrrolo[2,3-b]pyridin-6-yl)ethyl)-2,2-bis(methyl-d3)propanamide] the value was 92.2 nM; for `CCN(c1ccc2cc(-c3nc4cc(C(=O)N5CCC[C@@H](N)[C@H]5C)cc(OC)c4n3C3CC3)n(CC3CC3)c2n1)S(C)(=O)=O` [Example 35, N-(2-(5-((2R,3R)-3-amino-2-methylpiperidine-1-carbonyl)-1-cyclopropyl-7-methoxy-1H-benzo[d]imidazol-2-yl)-1-(cyclopropylmethyl)-1H-pyrrolo [2,3-b]pyridin-6-yl)-N-ethylmethanesulfonamide], 141 nM. Still for that read-out and setting: for `COc1cc(C(=O)N2CCC[C@@H](N)C2)cc2nc(-c3cc4ccc([C@@H](C)NC(=O)C(C)(C)C)nc4n3CC3CC3)n(C)c12` [Example 119, N-((R)-1-(2-(5-((R)-3-aminopiperidine-1-carbonyl)-7-methoxy-1-methyl-1H-benzo[d]imidazol-2-yl)-1-(cyclopropylmethyl)-1H-pyrrolo[2,3-b]pyridin-6-yl)ethyl)pivalamide] the value was 78.4 nM; for `COc1cc(C(=O)N2C[C@H](N)CC[C@@H]2C)cc2nc(-c3cc4ccc(-c5cccnc5-c5cncnc5)nc4n3CC3CC3)n(C)c12` [Example 266, ((2S,5R)-5-amino-2-methylpiperidin-1-yl)(2-(1-(cyclopropylmethyl)-6-(2-(pyrimidin-5-yl)pyridin-3-yl)-1H-pyrrolo[2,3-b]pyridin-2-yl)-7-methoxy-1-methyl-1H-benzo[d]imidazol-5-yl)methanone], 346 nM. For `COc1cc(C(=O)N2CC3(CCCCN3)C2)cc2nc(-c3cc4ccc(N(C(F)F)S(C)(=O)=O)nc4n3CC3CC3)n(C)c12` [Example 76, N-(1-(cyclopropylmethyl)-2-(7-methoxy-1-methyl-5-(2,5-diazaspiro[3.5]nonane-2-carbonyl)-1H-benzo[d]imidazol-2-yl)-1H-pyrrolo[2,3-b]pyridin-6-yl)-N-(difluoromethyl) methanesulfonamide], the IC50 under setting [1] came to 50000 nM. For the molecule `COc1cc(C(=O)N2[C@H]3CC[C@@H]2[C@H](N)C3)cc2nc(-c3cc4ccc([C@@H](C)NC(=O)N5CC(O)C5)nc4n3CC3CC3)n(C)c12` [Example 236, N-((R)-1-(2-(5-((1R,2R,4S)-2-amino-7-azabicyclo[2.2.1]heptane-7-carbonyl)-7-methoxy-1-methyl-1H-benzo[d]imidazol-2-yl)-1-(cyclopropylmethyl)-1H-pyrrolo[2,3-b]pyridin-6-yl)ethyl)-3-hydroxyazetidine-1-carboxamide], the IC50 under setting [1] amounted to 51.3 nM. Regarding `COc1cc(C(=O)N2C[C@H](N)CC[C@@H]2C)cc2nc(-c3cc4ccc(N5C(=O)CC[C@@H]5C)nc4n3CC3CC3)n(C)c12` [Example 285, (S)-1-(2-(5-((2S,5R)-5-amino-2-methylpiperidine-1-carbonyl)-7-methoxy-1-methyl-1H-benzo[d]imidazol-2-yl)-1-(cyclopropylmethyl)-1H-pyrrolo[2,3-b]pyridin-6-yl)-5-methylpyrrolidin-2-one], under setting [1], the IC50 is 322 nM.

One may read the IC50 as the concentration at which inhibition is half-maximal.
